Our source for the IC50 values is patent publication US20230159453A1 (COCRYSTAL PHARMA, INC., priority 2020, published 2023).

One may read the IC50 as the concentration at which inhibition is half-maximal.

For the assay, the target named is SARS2 protease (Severe acute respiratory syndrome coronavirus 2, UniProt P0DTD1). Description: SARS-CoV-2 protease inhibition assay (SARS2 FRET protease assay). Particulars: SARS-CoV-2 protease 25 nM, FRET, peptide substrate 1.3 μM, 30 minutes at 30° C., compounds 20 μM to 1.0 nM; read-out: IC50. The class given is biochemical.
On to `CC(C)C[C@H](NC(=O)OC1(Cc2cccnc2)CC1)C(=O)N[C@@H](C[C@@H]1CCNC1=O)C(O)S(=O)(=O)O` (stereo partly drawn) [Compound C62, (2S)-1-Hydroxy-2-((S)-4-methyl-2-(((1-(pyridin-3-ylmethyl)cyclopropoxy)carbonyl)amino)pentanamido)-3-((S)-2-oxopyrrolidin-3-yl)propane-1-sulfonate], for which the half-maximal inhibitory concentration (IC50) amounted to 4600 nM.
`CC(C)C[C@H](NC(=O)OC1(Cc2ccccc2)CCC1)C(=O)N[C@@H](C[C@@H]1CCNC1=O)C(O)S(=O)(=O)O` (stereo partly drawn) [Compound C63, (2S)-2-((S)-2-(((1-Benzylcyclobutoxy)carbonyl)amino)-4-methylpentanamido)-1-hydroxy-3-((S)-2-oxopyrrolidin-3-yl)propane-1-sulfonate]: the concentration for half-maximal inhibition (IC50) is 1600 nM.
To `CC(=O)N1CCC2(CC1)CC(CC(C=O)NC(=O)[C@H](CC(C)C)NC(=O)OCC1CCC(F)(F)CC1)C(=O)N2` (stereo partly drawn) [Compound C64, (4,4-Difluorocyclohexyl)methyl ((2S)-1-((1-(8-acetyl-2-oxo-1,8-diazaspiro[4.5]decan-3-yl)-3-oxopropan-2-yl)amino)-4-methyl-1-oxopentan-2-yl)carbamate] belongs 100 nM; to `CCCCCOC(=O)N[C@@H](CC(C)C)C(=O)NC(C)(C=O)CC1CCNC1=O` (stereo partly drawn) [Compound C65, Pentyl ((2S)-4-methyl-1-((2-methyl-1-oxo-3-(2-oxopyrrolidin-3-yl)propan-2-yl)amino)-1-oxopentan-2-yl) carbamate], 26900 nM; to `CC(C)C[C@H](NC(=O)OCc1cccc(Cl)c1)C(=O)NC(C=O)CC1CC2(CCCCC2)NC1=O` (stereo partly drawn) [Compound C66, 3-Chlorobenzyl ((2S)-4-methyl-1-oxo-1-((1-oxo-3-(2-oxo-1-azaspiro[4.5]decan-3-yl)propan-2-yl)amino)pentan-2-yl)carbamate], 100 nM.
For `CC(=O)N1CCC2(CC1)CC(CC(C=O)NC(=O)[C@H](Cc1cccc(F)c1)NC(=O)OCc1cccc(Cl)c1)C(=O)N2` (stereo partly drawn) [Compound C67, 3-Chlorobenzyl ((2S)-1-((1-(8-acetyl-2-oxo-1,8-diazaspiro[4.5]decan-3-yl)-3-oxopropan-2-yl)amino)-3-(3-fluorophenyl)-1-oxopropan-2-yl)carbamate], the IC50 was 300 nM.
Consider `CC(C)C[C@H](NC(=O)OC(Cc1ccccc1)c1ccccc1)C(=O)N[C@@H](C[C@@H]1CCNC1=O)C(=O)C(=O)NCc1ccccn1` (stereo partly drawn) [Compound C68, 1,2-Diphenylethyl ((S)-1-(((S)-3,4-dioxo-1-((S)-2-oxopyrrolidin-3-yl)-4-((pyridin-2-ylmethyl)amino)butan-2-yl)amino)-4-methyl-1-oxopentan-2-yl)carbamate], for which the IC50 is 2100 nM.
`CC(=O)N1CCC2(CC1)CC(CC(C=O)NC(=O)[C@H](CC(C)C)NC(=O)OCC(C)(C)c1cccc(Cl)c1)C(=O)N2` (stereo partly drawn) [Compound C70, 2-(3-Chlorophenyl)-2-methylpropyl ((2S)-1-((1-(8-acetyl-2-oxo-1,8-diazaspiro[4.5]decan-3-yl)-3-oxopropan-2-yl)amino)-4-methyl-1-oxopentan-2-yl)carbamate]: the IC50 was found to be 100 nM.
As for `CC(C)C[C@H](NC(=O)OC1(Cc2cccnc2)CC1)C(=O)N[C@H](C=O)C[C@@H]1CCNC1=O` [Compound C71, 1-(Pyridin-3-ylmethyl)cyclopropyl ((S)-4-methyl-1-oxo-1-(((S)-1-oxo-3-((S)-2-oxopyrrolidin-3-yl)propan-2-yl)amino)pentan-2-yl)carbamate], the concentration for half-maximal inhibition (IC50) came to 1600 nM.
Regarding `CC(C)C[C@H](NC(=O)OCC(C)(C)c1cccc(Cl)c1)C(=O)N[C@@H](C[C@@H]1CCNC1=O)C(O)S(=O)(=O)O` (stereo partly drawn) [Compound C72, Sodium (2S)-2-((S)-2-(((2-(3-chlorophenyl)-2-methylpropoxy)carbonyl)amino)-4-methylpentanamido)-1-hydroxy-3-((S)-2-oxopyrrolidin-3-yl)propane-1-sulfonate], the IC50 turned out to be 10 nM.
On to `CC(C)C[C@H](NC(=O)OC1(Cc2ccccc2)CCC1)C(=O)N[C@@H](C[C@@H]1CCNC1=O)C(=O)C(N)=O` [Compound C73, 1-Benzylcyclobutyl ((S)-1-(((S)-4-amino-3,4-dioxo-1-((S)-2-oxopyrrolidin-3-yl)butan-2-yl)amino)-4-methyl-1-oxopentan-2-yl)carbamate], for which the IC50 was determined as 600 nM.
For `CC(=O)N1CCC2(CC1)CC(CC(C=O)NC(=O)[C@H](CC(C)C)NC(=O)c1cc3ccccc3[nH]1)C(=O)N2` (stereo partly drawn) [Compound C74, N-((2S)-1-((1-(8-acetyl-2-oxo-1,8-diazaspiro[4.5]decan-3-yl)-3-oxopropan-2-yl)amino)-4-methyl-1-oxopentan-2-yl)-1H-indole-2-carboxamide], the IC50 worked out at 140 nM.
With `CC(=O)N1CCC2(CC1)CC(CC(C=O)NC(=O)[C@H](CC1CCCCC1)NC(=O)c1cc3ccccc3[nH]1)C(=O)N2` (stereo partly drawn) [Compound C75, N-((2S)-1-((1-(8-acetyl-2-oxo-1,8-diazaspiro[4.5]decan-3-yl)-3-oxopropan-2-yl)amino)-3-cyclohexyl-1-oxopropan-2-yl)-1H-indole-2-carboxamide], the IC50 worked out at 1.2 nM.
To `CC(C)C[C@H](NC(=O)OC1(Cc2cccc(OCc3ccccc3)c2)CC1)C(=O)N[C@@H](CC1CCNC1=O)C(O)S(=O)(=O)O` (stereo partly drawn) [Compound C76, Sodium (2S)-2-((S)-2-(((1-(3-(benzyloxy)benzyl)cyclopropoxy)carbonyl)amino)-4-methylpentanamido)-1-hydroxy-3-((S)-2-oxopyrrolidin-3-yl)propane-1-sulfonate] belongs 380 nM; to `CCCC1CCC(OC(=O)N[C@@H](CC(C)C)C(=O)NC(C=O)CC2CC3(CCN(C(C)=O)CC3)NC2=O)CC1` (stereo partly drawn) [Compound C77, 4-Propylcyclohexyl ((2S)-1-((1-(8-acetyl-2-oxo-1,8-diazaspiro[4.5]decan-3-yl)-3-oxopropan-2-yl)amino)-4-methyl-1-oxopentan-2-yl)carbamate], 600 nM.
For the molecule `CC(C)C[C@H](NC(=O)OC(C)(C)Cc1ccccc1)C(=O)N[C@@H](C[C@@H]1CCNC1=O)C(=O)C(N)=O` [Compound C79], the IC50 turned out to be 3800 nM.
Consider `CCOP(=O)(OCC)C(O)C(CC1CC2(CCN(C(C)=O)CC2)NC1=O)NC(=O)[C@H](CC1CCCCC1)NC(=O)c1cc2ccccc2[nH]1` (stereo partly drawn) [Compound C81, Diethyl (3-(8-acetyl-2-oxo-1,8-diazaspiro[4.5]decan-3-yl)-2-((S)-3-cyclohexyl-2-(1H-indole-2-carboxamido)propanamido)-1-hydroxypropyl)phosphonate], for which the IC50 was 200 nM.
As to `CCOP(=O)(OCC)C(O)C(CC1CC2(CCN(C(C)=O)CC2)NC1=O)NC(=O)[C@H](Cc1cccc(F)c1)NC(=O)OCc1cccc(Cl)c1` (stereo partly drawn) [Compound C82, 3-Chlorobenzyl ((2S)-1-((3-(8-acetyl-2-oxo-1,8-diazaspiro[4.5]decan-3-yl)-1-(diethoxyphosphoryl)-1-hydroxypropan-2-yl)amino)-3-(3-fluorophenyl)-1-oxopropan-2-yl)carbamate], the IC50 came to 4400 nM.
To `CC(C)C[C@H](NC(=O)OCC(C)(C)c1cccc(Cl)c1)C(=O)NC(C)(C=O)CC1CCNC1=O` (stereo partly drawn) [Compound C83, 2-(3-Chlorophenyl)-2-methylpropyl ((2S)-4-methyl-1-((2-methyl-1-oxo-3-(2-oxopyrrolidin-3-yl)propan-2-yl)amino)-1-oxopentan-2-yl) carbamate] belongs 1300 nM.
`CCOP(=O)(OCC)C(O)C(CC1CC2(CCN(C(C)=O)CC2)NC1=O)NC(=O)[C@H](CC(C)C)NC(=O)OCC(C)(C)c1cccc(Cl)c1` (stereo partly drawn) [Compound C84, 2-(3-Chlorophenyl)-2-methylpropyl ((2S)-1-((3-(8-acetyl-2-oxo-1,8-diazaspiro[4.5]decan-3-yl)-1-(diethoxyphosphoryl)-1-hydroxypropan-2-yl)amino)-4-methyl-1-oxopentan-2-yl)carbamate]: the IC50 came to 9200 nM.
Consider `CC(C)C[C@H](NC(=O)OC1CCN(C(=O)OC(C)(C)C)c2ccccc21)C(=O)N[C@@H](C[C@@H]1CCNC1=O)C(=O)C(=O)NCc1ccccn1` (stereo partly drawn) [Compound C86, Tert-butyl 4-((((S)-1-(((S)-3,4-dioxo-1-((S)-2-oxopyrrolidin-3-yl)-4-((pyridin-2-ylmethyl)amino)butan-2-yl)amino)-4-methyl-1-oxopentan-2-yl)carbamoyl)oxy)-3,4-dihydroquinoline-1(2H)-carboxylate], for which the half-maximal inhibitory concentration (IC50) was 900 nM.
To `CC(C)C[C@H](NC(=O)OCC(C)(C)c1cccc(Cl)c1)C(=O)N[C@@H](C[C@@H]1CCNC1=O)C(=O)C(=O)NC1CC1` [Compound C87, 2-(3-Chlorophenyl)-2-methylpropyl ((S)-1-(((S)-4-(cyclopropylamino)-3,4-dioxo-1-((S)-2-oxopyrrolidin-3-yl)butan-2-yl)amino)-4-methyl-1-oxopentan-2-yl)carbamate] belongs 700 nM; to `CC(C)C[C@H](NC(=O)OC1(Cc2cccc(Cl)c2)CC1)C(=O)N[C@@H](C[C@@H]1CCNC1=O)C(=O)C(N)=O` [Compound C88, 1-(3-Chlorobenzyl) cyclopropyl ((S)-1-(((S)-4-amino-3,4-dioxo-1-((S)-2-oxopyrrolidin-3-yl)butan-2-yl)amino)-4-methyl-1-oxopentan-2-yl)carbamate], 1300 nM.
To `CC(C)C[C@H](NC(=O)OCC(C)(C)c1cccc(Cl)c1)C(=O)N[C@@H](C[C@@H]1CCNC1=O)C(=O)C(N)=O` [Compound C90, 2-(3-chlorophenyl)-2-methylpropyl ((S)-1-(((S)-4-amino-3,4-dioxo-1-((S)-2-oxopyrrolidin-3-yl)butan-2-yl)amino)-4-methyl-1-oxopentan-2-yl)carbamate] belongs 100 nM.
On to `COc1cccc(CC2(OC(=O)N[C@@H](CC(C)C)C(=O)N[C@@H](C[C@@H]3CCNC3=O)C(=O)C(N)=O)CC2)c1` [Compound C93, 1-(3-Methoxybenzyl) cyclopropyl ((S)-1-(((S)-4-amino-3,4-dioxo-1-((S)-2-oxopyrrolidin-3-yl)butan-2-yl)amino)-4-methyl-1-oxopentan-2-yl) carbamate], for which the concentration for half-maximal inhibition (IC50) is more than 20000 nM.
